How the values were obtained:
Assay type in all cases: physicochemical
[1] = Determination of bulk density during shear tests; settings: during shear test, normal stress 1.5 kPa
Protocol: Because of the normal stress of 1.5 kPa applied on the top of the lid during the shear test the lid lowers into the shear cell and compresses the powder.
During the shear tests this lowering of the lid is measured and recorded. Since the volume of the bottom ring is known and weight of the sample measured before the beginning of the shear test the bulk density of the sample during the shear test is calculated
[formula] • with: • ρb,shear: Bulk density under shear • mges: total mass of shear cell including powder sample (w/o lid) • mcell: net mass of shear cell (w/o powder sample, w/o lid) • hc: height of the bottom ring • hl: lowering of lid • Acell: bottom area of shear cell
The calculation of the bulk density is done automatically with the evaluation software provided together with the shear tester.

[2] = Particle size distribution by laser diffraction (Malvern Panalytical Mastersizer 3000, Fraunhofer)
Protocol: The particle size distribution was measured by laser diffraction using the Malvern Panalytical Mastersizer 3000.
The samples are again taken from example 1.6 (probe 1) and example 1.5 (probe 2), the same as used in example 4.
The sample to be analyzed is dispersed in 1 drop of Tween 80 the sample is processed according to ISO13320.
Laser diffraction is an often-used method for determination the particle size of dispersed solid materials. A widened laser beam illuminates a cuvette which contains part of the particles. By diffraction on the particles a characteristic pattern can be mapped on the detector. The resulting diffraction image is the additive overlaying of diffraction images of all particles.
Besides the mentioned detector two additional detectors are mounted in order to detect diffraction light in forward direction (FA1,9), in wide angle (LA1,2) and in back direction (BS1,2). The turbidity of the sample is measured by an extinction sensor. This is necessary to ensure a low particle concentration which is necessary to avoid wrong results by multiple diffraction of light at several particles.
The cuvette used was a wet unit where the suspension is pumped in a closed circuit with a dispersing unit that ensures a separation of single particles by shear forces.
The measurement range of the Malvern 3000 covers a particle size from 1 mm (2 mm) down to 20 nm
The calculation of the particle size distribution from the diffraction patterns was done on basis of theory of Fraunhofer.
This assumption is valid for particle sizes of 10 to 50 μm and above. For smaller particles the light scattering of the particle itself due to optical transparency must be considered which is done in the Mie-theory (not used for our probes). Precondition of the application of the Mie-theory is the knowledge of the refractive and absorption index of the dispersed solids.
Q3 is the cumulative volume distribution, e.g. D50=Q(50%) indicates 50% of the volume part of the sample is smaller than particle size of 50 μm.
The particle size is expressed as an equivalent diameter used in the method recommended by the Malvern Analysis Program and as described in ISO13320.

[3] = Hygroscopicity classification applying the Pharmacopeia rules
Text: The shear cell was fully filled with a sample of powder of the compound of formula (I) thereby preventing condensing the powder. Both samples, sample 1 and sample 2, were classified as non-hydroscopic applying the Pharmacopeia rules.

[4] = Particle size analysis of micronized product, laser diffraction (Sympatec HELOS/RODOS, dry dispersion); settings: micronized twice, air jet mill; dry dispersion at 4 bar
Text: The instrumental set-up for particle size analysis: • Laser diffraction pattern analyzer (Sympatec HELOS, H1970 & RODOS, R3:0.5/0.9 . . . 175 μm), 100 mm focal length, • Dry dispersion (RODOS) at 4 bar, • Mathematical model (LD 5.9.0.0)-Sympatec Code, basis Fraunhofer Diffraction

[5] = without ultrasound (US), listed as Probe 1

C[C@@H]1OC(=O)NN=C1c1ccc(-c2ccc(F)cc2)c(C(F)(F)F)c1 [polymorph A, (6S)-5-[4′-Fluoro-2-(trifluoromethyl)biphenyl-4-yl]-6-methyl-3,6-dihydro-2H-1,3,4-oxadiazin-2-one]
bulk density [1]: 270 kg/m^3 | difference between Q3[50] of untreated sample and sample treated 300 s with ultrasound [2]: large | D(10) ([2]; 300 s US, listed as Probe 1): 4.02 μm | D(50) ([2]; 300 s US, listed as Probe 1): 44 μm | D(90) ([2]; 300 s US, listed as Probe 1): 128 μm | amount of fines ([2]; after US treatment of 300 s, compared to polymorph C): significantly larger | particle size distribution compared to polymorph C ([2]; after ultrasound treatment): significantly smaller particle size and broader distribution | Cumulative volume distribution Q ([2]; particle size D 0.01 μm, 300 s US): 0% | Cumulative volume distribution Q ([2]; particle size D 0.01 μm, without US): 0% | Cumulative volume distribution Q ([2]; particle size D 0.0114 μm, 300 s US): 0% | Cumulative volume distribution Q ([2]; particle size D 0.0114 μm, without US): 0% | Cumulative volume distribution Q ([2]; particle size D 0.0129 μm, 300 s US): 0% | Cumulative volume distribution Q ([2]; particle size D 0.0129 μm, without US): 0% | Cumulative volume distribution Q ([2]; particle size D 0.0147 μm, 300 s US): 0% | Cumulative volume distribution Q ([2]; particle size D 0.0147 μm, without US): 0% | Cumulative volume distribution Q ([2]; particle size D 0.0167 μm, 300 s US): 0% | Cumulative volume distribution Q ([2]; particle size D 0.0167 μm, without US): 0% | Cumulative volume distribution Q ([2]; particle size D 0.0189 μm, 300 s US): 0% | Cumulative volume distribution Q ([2]; particle size D 0.0189 μm, without US): 0% | Cumulative volume distribution Q ([2]; particle size D 0.0215 μm, 300 s US): 0% | Cumulative volume distribution Q ([2]; particle size D 0.0215 μm, without US): 0% | Cumulative volume distribution Q ([2]; particle size D 0.0244 μm, 300 s US): 0% | Cumulative volume distribution Q ([2]; particle size D 0.0244 μm, without US): 0% | Cumulative volume distribution Q ([2]; particle size D 0.0278 μm, 300 s US): 0% | Cumulative volume distribution Q ([2]; particle size D 0.0278 μm, without US): 0% | Cumulative volume distribution Q ([2]; particle size D 0.0315 μm, 300 s US): 0% | Cumulative volume distribution Q ([2]; particle size D 0.0315 μm, without US): 0% | Cumulative volume distribution Q ([2]; particle size D 0.0358 μm, 300 s US): 0% | Cumulative volume distribution Q ([2]; particle size D 0.0358 μm, without US): 0% | Cumulative volume distribution Q ([2]; particle size D 0.0407 μm, 300 s US): 0% | Cumulative volume distribution Q ([2]; particle size D 0.0407 μm, without US): 0% | Cumulative volume distribution Q ([2]; particle size D 756 μm, 300 s US): 100% | Cumulative volume distribution Q ([2]; particle size D 756 μm, without US, listed as Probe 1): 92.34% | Cumulative volume distribution Q ([2]; particle size D 859 μm, 300 s US): 100% | Cumulative volume distribution Q ([2]; particle size D 859 μm, without US, listed as Probe 1): 96.59% | Cumulative volume distribution Q ([2]; particle size D 976 μm, 300 s US): 100% | Cumulative volume distribution Q ([2]; particle size D 976 μm, without US, listed as Probe 1): 99.14% | Cumulative volume distribution Q ([2]; particle size D 1110 μm, 300 s US): 100% | Cumulative volume distribution Q ([2]; particle size D 1110 μm, without US): 100% | Cumulative volume distribution Q ([2]; particle size D 1260 μm, 300 s US): 100% | Cumulative volume distribution Q ([2]; particle size D 1260 μm, without US): 100% | Cumulative volume distribution Q ([2]; particle size D 1430 μm, 300 s US): 100% | Cumulative volume distribution Q ([2]; particle size D 1430 μm, without US): 100% | Cumulative volume distribution Q ([2]; particle size D 1630 μm, 300 s US): 100% | Cumulative volume distribution Q ([2]; particle size D 1630 μm, without US): 100% | Cumulative volume distribution Q ([2]; particle size D 1850 μm, 300 s US): 100% | Cumulative volume distribution Q ([2]; particle size D 1850 μm, without US): 100% | Cumulative volume distribution Q ([2]; particle size D 2100 μm, 300 s US): 100% | Cumulative volume distribution Q ([2]; particle size D 2100 μm, without US): 100% | Cumulative volume distribution Q ([2]; particle size D 2390 μm, 300 s US): 100% | Cumulative volume distribution Q ([2]; particle size D 2390 μm, without US): 100% | Cumulative volume distribution Q ([2]; particle size D 2710 μm, 300 s US): 100% | Cumulative volume distribution Q ([2]; particle size D 2710 μm, without US): 100% | Cumulative volume distribution Q ([2]; particle size D 3080 μm, 300 s US): 100% | Cumulative volume distribution Q ([2]; particle size D 3080 μm, without US): 100% | Cumulative volume distribution Q ([2]; particle size D 3500 μm, 300 s US): 100% | Cumulative volume distribution Q ([2]; particle size D 3500 μm, without US): 100% | D(10) [2, 5]: 165 μm | D(50) [2, 5]: 404 μm | D(90) [2, 5]: 720 μm | particle size distribution compared to polymorph C ([2]; without ultrasound treatment): significantly broader particle size distribution and larger particles | hygroscopicity classification [3]: non-hydroscopic

C[C@@H]1OC(=O)NN=C1c1ccc(-c2ccc(F)cc2)c(C(F)(F)F)c1 [micronized product, (6S)-5-[4′-fluoro-2-(trifluoromethyl)[biphenyl]-4-yl]-6-methyl-3,6-dihydro-2H-1,3,4-oxadiazin-2-one]
Particle Size distribution X10 [4]: 1.2 μm | Particle Size distribution X50 [4]: 4 μm | Particle Size distribution X90 [4]: 10 μm

From US20260258004A1, “CRYSTALLINE FORMS OF (6S)-5-[4'-FLUORO-2-(TRIFLUOROMETHYL)BIPHENYL-4-YL]-6-METHYL-3,6- DIHYDRO-2H-l,3,4-OXADIAZIN-2-ONE” (Bayer Aktiengesellschaft, priority 2022, published 2026)
